Measured values reported in patent publication US20120201768A1, “COSMETIC COMPOSITIONS COMPRISING FICUS SERUM FRACTION AND METHODS TO REDUCE THE APPEARANCE OF SKIN HYPERPIGMENTATION” (priority 2010, published 2012).

Tested on: hyperpigmented spots
Experiment: In vivo testing for hyperpigmented spot reduction and melanin evenness (9 week split face study)
Design: species or system humans
Conditions: for Melanin Evenness versus Vehicle / NC2 SAF (spot area fraction) versus Vehicle: vehicle+0.55% FSF or vehicle+5% Niacinamide, twice daily, split face
Procedure: A 9 week in-vivo study was conducted using a round robin, vehicle controlled, split face design including a 1 week normalization period with 270 subjects. The 270 subjects were screened according to inclusion/exclusion criteria which included the following:
Has hyperpigmented spots around cheek and/or periorbital area on both sides of the face.
Has at least 1 hyperpigmented spot of 8-10 mm diameter, 4 spots of 4-6 mm or 10 spots of 2-3 mm diameter (sun spots, freckles, or melasma spots) or equivalent spot area in the cheek area on each side of their face.
Is willing to refrain from sun exposure by using supplied UV lotion and physical UV blocks, such as a hat, to avoid facial sunburn, tanning or wind burn.
Has been diagnosed as having atopy, eczema, psoriasis, or other chronic skin diseases.
Has obvious signs of facial skin disease (e.g., more than 5 pimples, areas of red scaling skin, superficial thin blood vessels, etc.).
Has significant areas of discoloration or scarring on the face.
Has more than 3 prominent moles (<3 mm) on the face.
Two hundred and seventy subjects were recruited for the study. […] Each subject received two coded test formulations for twice daily application to each half of the face. Images of the facial treatment sites were captured at baseline (week 0), and after 4 and 8 weeks of treatment and analyzed for changes to skin color and spot size and color. The product formulations included a vehicle control, the vehicle+0.55% FSF, and the vehicle+5% vitamin B3 compound (Niacinamide).
Noncontact spectrophotometric intracutaneous analysis (SiaScopy, Astron Clinica, UK) was used to collect and analyze the subject images. The method used a digital camera (e.g., Fuji S2 digital SLR) as a […] and a flash lighting source (e.g., Sigma Super flash light source) to recover facial chromophore information. A cross polarized filter was placed in front of the camera and the lighting source to eliminate specular reflection.
Chromophore mapping of the concentration and distribution of eumelanin (melanin) and oxyhaemoglobin produces grayscale concentration maps of each of these chromophores. Image analysis software, such as Optimas 6.5, can be used to select a region of interest in each chromophore map from which mean grayscale values and spot area fraction are calculated. Spot area fraction refers to total area occupied by melanin spots as a percentage of the whole region of interest. A description of one type of chromophore mapping can be found in EP 1,810,614 and “The Distribution of Melanin in Skin Determined In Vivo”, British Journal of Dermatology, 2007, pp 620-628.
Table 15 summarizes the image analysis data, wherein SAF is the mean Spot Area Fraction and A SAF is the mean change in Spot Area Fraction from baseline (week 0).

Compound: NC(=O)c1cccnc1 [Niacinamide]
- Melanin Evenness versus Vehicle (4 weeks): ns (ns = not significant (p > 0.3))
- NC2 SAF (spot area fraction) versus Vehicle (4 weeks): ns (ns = not significant (p > 0.3))
- Melanin Evenness versus Vehicle (8 weeks): Sig
- NC2 SAF (spot area fraction) versus Vehicle (8 weeks): Sig
- reduction of hyperpigmented spots (in words) (after 8 weeks, vehicle+0.55% FSF, vehicle+5% vitamin B3, control): best performer
